Among the data in US8450317B2, “CXCR3 receptor antagonists” (Boehringer Ingelheim International GmbH, priority 2009, dated 2013) are atherosclerotic lesion formation and IC50 values, retold here.

The test system of assay [1] is LDL receptor knockout model. The following applies: dosed prophylactically in a LDL receptor knockout model; cited from earlier work.
In a further assay the target is CXCR3 (Macaca fascicularis, UniProt A0A2K5UV19). In words: functional cellular assay measuring calcium flux in CXCR3 transfected cells (block of CXCR3/IP-10 interaction). It is filed as cell-based, Cyno. The note with it: IP-10 induced intracellular calcium flux; Cyno-CHO cells stably expressing recombinant CXCR3 and G-alpha-16; IP-10 at EC80; read-out: IC50. Summed up: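 Cyno-CHO cells stably expressing CXCR3 and G-alpha-16, loaded with Ca-4 dye in HBSS/10 mM HEPES pH 7.4 with 2 mM probenecid for 1 h at 37° C. Compound (final 10 microM) preincubated 15 min at room temperature, then IP-10 at EC80 added; calcium flux read at 480/540 nm.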
CXCR3, sequence (A0A2K5UV19 entry or part of it): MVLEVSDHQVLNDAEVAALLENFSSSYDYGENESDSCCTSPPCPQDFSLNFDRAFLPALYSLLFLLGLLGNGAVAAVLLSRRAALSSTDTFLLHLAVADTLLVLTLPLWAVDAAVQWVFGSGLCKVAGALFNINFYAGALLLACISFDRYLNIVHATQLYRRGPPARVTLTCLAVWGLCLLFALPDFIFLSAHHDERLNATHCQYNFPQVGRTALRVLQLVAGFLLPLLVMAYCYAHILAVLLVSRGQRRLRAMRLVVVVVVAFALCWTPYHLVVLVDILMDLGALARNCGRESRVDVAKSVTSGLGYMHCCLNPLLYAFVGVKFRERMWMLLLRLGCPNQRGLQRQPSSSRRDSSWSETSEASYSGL
(In general: Calcium assays in cells follow changes in intracellular calcium, usually with a dye or a luminescent sensor.)

With `CCOc1ccc(-n2c(C(C)N(Cc3cccnc3)C(=O)Cc3ccc(F)c(C(F)(F)F)c3)nc3ncccc3c2=O)cc1` (stereo not shown) [NBI-74330], in assay [1], the atherosclerotic lesion formation entry is “significantly attenuated atherosclerotic lesion formation”.

What is called IC50 is the concentration needed to halve the response being measured. Take `CN1CCN(c2ncc(-c3cc(F)ccc3N3CCN(C(=O)Cn4ccc5cccnc54)CC3)cn2)CC1` [1-(4-{4-fluoro-2-[2-(4-methylpiperazin-1-yl)pyrimidin-5-yl]phenyl}piperazin-1-yl)-2-(1H-pyrrolo[2,3-b]pyridin-1-yl)ethanone]: on CXCR3, the half-maximal inhibitory concentration (IC50) is 20 nM.

Consider `CSc1ncc(-c2ccccc2N2CCN(C(=O)Cn3ccc4cccnc43)CC2)cn1` [1-{4-[2-(2-Methylsulfanyl-pyrimidin-5-yl)-phenyl]-piperazin-1-yl}-2-pyrrolo[2,3-b]pyridin-1-yl-ethanone], for which, at CXCR3, the half-inhibitory concentration (IC50) came out at 4 nM.

Regarding `C[C@@H]1CN(c2ccc(F)cc2C(=O)Nc2nc3c(s2)CN(C)CC3)CCN1C(=O)Cn1c(=O)[nH]c2ccccc21` [5-fluoro-2-{(3R)-3-methyl-4-[(2-oxo-2,3-dihydro-1H-benzimidazol-1-yl)acetyl]piperazin-1-yl}-N-(5-methyl-4,5,6,7-tetrahydro[1,3]thiazolo[5,4-c]pyridin-2-yl)benzamide], on CXCR3, the IC50 worked out at 18 nM.
